According to publication PMC11227560, “Tyrosol blocks E. coli anaerobic biofilm formation via YbfA and FNR to increase antibiotic susceptibility” (Nature Communications, 2024):

Target: T1, YbfA (Escherichia coli, UniProt P0AAU2)
T1 construct: recombinant 6xHis-tagged YbfA (pET28a), ybfA gene cloned from E. coli W3110
Assay: isothermal titration calorimetry (ITC), […] °C
Format: binding

T1 sequence (P0AAU2 22-68): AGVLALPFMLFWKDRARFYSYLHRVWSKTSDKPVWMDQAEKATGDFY

**Q.** For OCCc1ccc(O)cc1 [tyrosol], which Kd is on record?
**A.** 4.65 ± 0.11 µM
